The source of these data is patent publication US8617906B2, “Identification and screening of triptolide target molecules” (priority 2004, dated 2013).

In one test the target is T1, 14-3-3 ε (PG773) (Homo sapiens, UniProt P62258).
T1 construct: endogenous in cells; host or cells: Jurkat
The test is described as follows: Isolation of proteins binding 3H-triptolide in Jurkat cells. Conditions: 3H-labeled compound incubated with Jurkat cells. The procedure: Triptolide target molecules were isolated and identified by purification and identification of molecules that bind ^3H-triptolide. Jurkat cells from expanding cultures were labeled with ^3H-triptolide by cultivation at 37° C. with 5% CO2 for a period of time between a few hours and overnight (usually 6-7 hours) and harvested by centrifugation and washing in ice-cold phosphate buffered saline. The cells (usually 1-3×10^6/ml) were generally labeled with ^3H-triptolide to a final concentration of 35 nM (100 μCi/200 ml of medium). […]
(§1) The cells were extracted with M-per buffer (Pierce) and homogenized in presence of a protease inhibitor cocktail, sometimes including other reagents such as deoxyribonuclease (DNase). […] When the extracts components were found not to be sufficiently purified, enriched or reduced in number, 2D gel electrophoresis was employed, followed by fluorography for ^3H-associated radioactivity detection, and MALDI/MS of the corresponding peptides (after proteolysis) and peptide fingerprinting. […]
MALDI-MS peptide fingerprinting analysis identified HSP 90β (PG771) in fraction #4 and L-plastin (PG772) in fraction #9. […] A positive spot on the film (fluorographically positive, therefore positive for ^3H-associated radioactivity) was seen near the 29 kDa protein marker. […]

The test system of the next test is PC12 cells. Conditions: cited from earlier work.
The next test deals with microglia. To be noted: cited from earlier work.
The next test concerns the target T2, Vimentin (PG778) (Homo sapiens, UniProt P08670).
T2 construct: endogenous in cells; host or cells: Jurkat
The test is described as follows: Isolation of proteins binding 3H-triptolide in Jurkat cells. Conditions: 3H-labeled Jurkat cell extract. The procedure: (§2) Triptolide target molecules were isolated and identified by purification and identification of molecules that bind ^3H-triptolide. Jurkat cells from expanding cultures were labeled with ^3H-triptolide by cultivation at 37° C. with 5% CO2 for a period of time between a few hours and overnight (usually 6-7 hours) and harvested by centrifugation and washing in ice-cold phosphate buffered saline. The cells (usually 1-3×10^6/ml) were generally labeled with ^3H-triptolide to a final concentration of 35 nM (100 μCi/200 ml of medium). Collected cell pellets were pooled, and the cells were either extracted and subjected to separation and purification at that time, or were frozen and stored at −20° C. as pellets for extraction and investigation at a later time.
as §1

The subject of test [1] is T3, Hypothetical Protein (GI 11277141), superfamily HSP 90 (PG788) (Homo sapiens).
T3 construct: endogenous in cells; host or cells: Jurkat
The test is described as above. To be noted: 3H-labeled Jurkat cell extract. The procedure: as §2, §1

In test [2] the target is T4, hypothetical protein FLJ20297 (PG777) (Homo sapiens, UniProt Q9NXE4).
T4 construct: endogenous in cells; host or cells: Jurkat
Described as above. To be noted: 3H-labeled Jurkat cell extract. The procedure: as §2, §1

Structures are written as SMILES.

T1 sequence (P62258 whole entry): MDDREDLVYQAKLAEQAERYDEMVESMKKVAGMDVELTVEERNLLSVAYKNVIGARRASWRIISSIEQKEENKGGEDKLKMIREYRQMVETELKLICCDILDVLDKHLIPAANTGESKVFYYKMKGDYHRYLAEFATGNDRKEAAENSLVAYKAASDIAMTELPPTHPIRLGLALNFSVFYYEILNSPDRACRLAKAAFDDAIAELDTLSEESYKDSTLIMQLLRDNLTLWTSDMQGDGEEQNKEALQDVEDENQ
T2 sequence (P08670 whole entry): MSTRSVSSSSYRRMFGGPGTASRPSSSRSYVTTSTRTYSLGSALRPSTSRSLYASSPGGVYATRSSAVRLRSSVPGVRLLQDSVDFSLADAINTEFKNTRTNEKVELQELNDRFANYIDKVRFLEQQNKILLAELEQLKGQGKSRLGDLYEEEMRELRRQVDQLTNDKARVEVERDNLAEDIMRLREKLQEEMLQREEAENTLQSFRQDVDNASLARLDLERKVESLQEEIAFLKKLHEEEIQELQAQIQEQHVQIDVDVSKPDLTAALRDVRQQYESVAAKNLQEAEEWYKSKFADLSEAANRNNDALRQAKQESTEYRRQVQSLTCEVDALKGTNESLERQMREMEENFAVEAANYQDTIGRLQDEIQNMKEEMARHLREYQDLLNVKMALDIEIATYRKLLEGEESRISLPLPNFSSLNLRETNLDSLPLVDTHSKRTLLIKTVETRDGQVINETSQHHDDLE
T4 sequence (Q9NXE4 whole entry): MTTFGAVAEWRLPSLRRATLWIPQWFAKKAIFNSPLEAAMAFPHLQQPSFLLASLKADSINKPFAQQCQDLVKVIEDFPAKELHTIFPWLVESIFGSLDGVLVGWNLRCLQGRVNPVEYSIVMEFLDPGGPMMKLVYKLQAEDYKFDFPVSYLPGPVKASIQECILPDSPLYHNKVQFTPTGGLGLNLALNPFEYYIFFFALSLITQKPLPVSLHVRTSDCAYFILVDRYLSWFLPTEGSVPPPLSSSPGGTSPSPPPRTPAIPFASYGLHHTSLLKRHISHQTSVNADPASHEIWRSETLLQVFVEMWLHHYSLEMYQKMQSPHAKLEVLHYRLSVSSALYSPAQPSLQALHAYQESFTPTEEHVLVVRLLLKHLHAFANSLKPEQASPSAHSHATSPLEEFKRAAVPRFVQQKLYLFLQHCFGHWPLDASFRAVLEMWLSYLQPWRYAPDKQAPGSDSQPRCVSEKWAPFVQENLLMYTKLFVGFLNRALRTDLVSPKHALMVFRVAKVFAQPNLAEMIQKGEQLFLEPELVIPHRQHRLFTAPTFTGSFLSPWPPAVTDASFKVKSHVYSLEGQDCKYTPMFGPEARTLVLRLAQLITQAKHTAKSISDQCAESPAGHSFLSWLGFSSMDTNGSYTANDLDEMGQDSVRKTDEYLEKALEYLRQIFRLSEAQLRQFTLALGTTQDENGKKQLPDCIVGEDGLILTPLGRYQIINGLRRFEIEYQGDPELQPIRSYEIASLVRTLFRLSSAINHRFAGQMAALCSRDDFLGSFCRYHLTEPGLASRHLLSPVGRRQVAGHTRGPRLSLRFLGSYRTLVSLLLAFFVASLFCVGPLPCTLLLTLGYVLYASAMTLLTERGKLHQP
T3 sequence (P08238 2-724 limits assumed): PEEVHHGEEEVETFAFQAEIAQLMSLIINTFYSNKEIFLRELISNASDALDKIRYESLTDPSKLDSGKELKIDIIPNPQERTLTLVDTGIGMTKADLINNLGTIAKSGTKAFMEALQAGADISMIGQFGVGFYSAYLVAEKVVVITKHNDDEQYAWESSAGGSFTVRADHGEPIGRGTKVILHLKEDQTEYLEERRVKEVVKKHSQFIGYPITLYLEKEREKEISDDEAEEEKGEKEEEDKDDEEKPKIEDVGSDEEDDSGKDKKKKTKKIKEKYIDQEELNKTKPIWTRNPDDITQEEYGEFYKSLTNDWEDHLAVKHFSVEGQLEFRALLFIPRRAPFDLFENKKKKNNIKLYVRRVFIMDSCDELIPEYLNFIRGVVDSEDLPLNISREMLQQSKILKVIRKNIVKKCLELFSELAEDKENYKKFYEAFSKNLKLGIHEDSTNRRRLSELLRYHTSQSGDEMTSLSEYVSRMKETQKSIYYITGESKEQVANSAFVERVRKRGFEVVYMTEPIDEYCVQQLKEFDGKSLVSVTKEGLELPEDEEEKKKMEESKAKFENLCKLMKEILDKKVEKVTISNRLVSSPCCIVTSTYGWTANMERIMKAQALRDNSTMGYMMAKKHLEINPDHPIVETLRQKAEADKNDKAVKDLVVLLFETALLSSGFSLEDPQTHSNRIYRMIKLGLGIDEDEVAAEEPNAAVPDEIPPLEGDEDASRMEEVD

`CC(C)[C@]12O[C@H]1[C@@H]1O[C@]13[C@]1(O[C@H]1C[C@H]1C4=C(CC[C@@]13C)C(=O)OC4)[C@@H]2O` [triptolide]: the “3H-associated protein identified as triptolide target: 14-3-3 ε” value on 14-3-3 ε (PG773) is reported as “identified”. In addition, in the test with PC12 cells, the β-amyloid-induced apoptosis entry is given as “markedly inhibit β-amyloid-induced apoptosis” and the “β-amyloid-induced increase of intracellular Ca2+ concentration” value is on record as “inhibit the increase of intracellular Ca^2+ concentration induced by β-amyloid”. Further, the “LPS-activated microglial activity (nitrite accumulation, TNF-α and IL-1β release)” value in the test on microglia is “powerful inhibitory influence”. For the same molecule, the “3H-associated protein identified as triptolide target: Vimentin” value on Vimentin (PG778) is listed as “identification”. Moreover, the “3H-associated protein identified as triptolide target: GI 11277141” value in test [1] is reported as “identified”. Also, in test [2], the “3H-associated protein identified as triptolide target: FLJ20297” value is given as “identification”.
